Reference: ChEMBL document CHEMBL3751741, “Discovery of a potent and highly fluorescent sirtuin inhibitor” (Medchemcomm, 2015)
Values after ≈ are worked out from the molar mass of the structure shown. Active and inactive are the calls of the source. The calls are words filed in the database; no cut-off is given here.

Assays:
[1] = system: CCRF-CEM; test: Antiproliferative activity against human CCRF-CEM cells assessed as cell viability at 50 uM after 72 hrs by MTS assay (reference value: 100 +/- 5.54%); format: functional; details: read-out: Activity
[2] = target: T1, NAD-dependent protein deacetylase sirtuin-2 (Homo sapiens) (UniProt Q8IXJ6); test: Inhibition of recombinant human C-terminal His-tagged SIRT2 (13 to 319 residues) using human p53 derived peptides as substrate at 50 uM incubated for 45 mins by fluorescence assay
T1 sequence (whole entry): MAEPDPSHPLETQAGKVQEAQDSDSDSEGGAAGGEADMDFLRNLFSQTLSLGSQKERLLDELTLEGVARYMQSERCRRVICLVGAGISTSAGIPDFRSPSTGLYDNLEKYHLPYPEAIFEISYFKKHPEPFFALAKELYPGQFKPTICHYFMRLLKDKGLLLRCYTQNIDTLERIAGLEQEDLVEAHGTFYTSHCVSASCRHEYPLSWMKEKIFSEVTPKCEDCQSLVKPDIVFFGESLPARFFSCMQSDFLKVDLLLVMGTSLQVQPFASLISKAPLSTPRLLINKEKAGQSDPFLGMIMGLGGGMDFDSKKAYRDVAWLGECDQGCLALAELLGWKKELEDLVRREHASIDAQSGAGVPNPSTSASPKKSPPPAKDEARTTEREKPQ

[3] = Antiproliferative activity against human HCT116 cells assessed as cell viability at 50 uM after 72 hrs by MTS assay (reference value: 100 +/- 6.01%); format: functional; details: HCT-116, 72 h, read-out: Activity
[4] = system: MDA-MB-468; test: Antiproliferative activity against human MDA-MB-468 cells assessed as cell viability at 50 uM after 72 hrs by MTS assay (reference value: 100 +/- 8.06%); format: functional; details: MDA-MB-468, 72 h, read-out: Activity
[5] = target: T2, NAD-dependent protein deacetylase sirtuin-1 (Homo sapiens) (UniProt Q96EB6); test: Inhibition of recombinant human N-terminal GST-tagged SIRT1 (193 to 741 residues) using human p53 derived peptides as substrate at 50 uM incubated for 45 mins by fluorescence assay
T2 sequence (whole entry): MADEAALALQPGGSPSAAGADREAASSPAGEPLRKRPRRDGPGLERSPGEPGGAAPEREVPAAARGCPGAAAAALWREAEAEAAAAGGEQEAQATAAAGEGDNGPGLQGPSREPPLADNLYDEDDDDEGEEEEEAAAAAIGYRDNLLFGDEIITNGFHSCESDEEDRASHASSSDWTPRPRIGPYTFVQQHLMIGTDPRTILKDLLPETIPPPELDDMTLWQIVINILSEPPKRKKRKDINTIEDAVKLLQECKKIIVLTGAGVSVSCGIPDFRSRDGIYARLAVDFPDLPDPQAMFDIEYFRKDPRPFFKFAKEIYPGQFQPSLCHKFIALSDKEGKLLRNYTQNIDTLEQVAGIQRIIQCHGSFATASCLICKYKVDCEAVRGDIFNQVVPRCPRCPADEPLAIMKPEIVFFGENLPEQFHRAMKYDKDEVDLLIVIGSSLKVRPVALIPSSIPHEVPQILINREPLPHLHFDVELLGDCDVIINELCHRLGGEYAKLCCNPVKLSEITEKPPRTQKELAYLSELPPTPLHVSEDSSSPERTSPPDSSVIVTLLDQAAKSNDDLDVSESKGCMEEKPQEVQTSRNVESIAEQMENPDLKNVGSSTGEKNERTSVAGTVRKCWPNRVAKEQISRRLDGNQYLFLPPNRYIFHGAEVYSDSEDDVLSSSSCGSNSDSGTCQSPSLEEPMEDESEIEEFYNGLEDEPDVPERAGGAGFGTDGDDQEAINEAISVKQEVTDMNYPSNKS

[6] = target: T3, NAD-dependent protein deacetylase sirtuin-2 (Homo sapiens, UniProt Q8IXJ6); test: Inhibition of recombinant human C-terminal His-tagged SIRT2 (13 to 319 residues) using human p53 derived peptides as substrate incubated for 45 mins by fluorescence assay
T3 sequence (Q8IXJ6 whole entry): T1 sequence (whole entry)

[7] = Aqueous solubility of compound in water containing 0.5% DMSO by UV-spectrophotometry analysis; format: physicochemical
[8] = Drug uptake in cytoplasm of human CCD18 cells at 50 uM by fluorescence microscopy; format: ADME, cell-based; details: ccd18, 50 µM
[9] = target: T1, NAD-dependent protein deacetylase sirtuin-2 (Homo sapiens); test: Competitive inhibition of recombinant human C-terminal His-tagged SIRT2 (13 to 319 residues) using human p53 derived peptides as substrate incubated for 45 mins by fluorescence assay in presence of increasing NAD+ level
[10] = target: T1, NAD-dependent protein deacetylase sirtuin-2 (Homo sapiens); test: Inhibition of SIRT2 in human HCT116 cells assessed as increase in alpha-tubulin acetylation up to 50 uM incubated for 24 hrs by Western blotting method; format: cell-based; details: HCT-116
[11] = target: T1, NAD-dependent protein deacetylase sirtuin-2 (Homo sapiens); test: Reversible inhibition of recombinant human C-terminal His-tagged SIRT2 (13 to 319 residues) using human p53 derived peptides as substrate at 10 uM incubated for 45 mins by fluorescence assay
[12] = Drug uptake in cytoplasm of human HCT116 cells at 50 uM by fluorescence microscopy; format: ADME, cell-based; details: hct-116, 50 µM
[13] = target: T4, NAD-dependent protein deacetylase sirtuin-1 (Homo sapiens, UniProt Q96EB6); test: Inhibition of recombinant human N-terminal GST-tagged SIRT1 (193 to 741 residues) using human p53 derived peptides as substrate incubated for 45 mins by fluorescence assay
T4 sequence (Q96EB6 whole entry): T2 sequence (whole entry)

Row | Structure (SMILES) | inhibition [2] | inhibition [5] | IC50 [6] | solubility [7] | Drug uptake [8] | inhibition [9] | inhibition [10] | inhibition [11] | Drug uptake [12] | IC50 [13] | viability at 50 µM [1] | viability at 50 µM [3] | viability at 50 µM [4]
1 | CCOC(=O)c1ccc2[nH]c(-c3ccc(O)cc3)nc2c1 | 42.9% |  |  |  |  |  |  |  |  |  | 85.5% | 77.1% | 76.5%
2 | CCOC(=O)c1ccc2[nH]c(-c3ccccc3)nc2c1 | 36.3% | 24.7% |  |  |  |  |  |  |  |  | 58.3% | 29.7% | 49.3%
3 | CCOC(=O)c1ccc2[nH]c(-c3ccc(C(C)(C)C)cc3)nc2c1 | 50.2% |  |  |  |  |  |  |  |  |  | 82.2% | 54.2% | 54.6%
4 | N#C/C(=C\c1ccc(-c2cc(Cl)ccc2Cl)o1)C(=O)Nc1cccc2ncccc12 |  |  |  |  |  |  |  |  |  | 68 µM |  |  | 
5 | CCOC(=O)c1ccc2[nH]c(-c3ccc(C)cc3)nc2c1 | 45.2% |  |  |  |  |  |  |  |  |  | 61.2% | 48.4% | 89.1%

More lines, main results first:

Row | inhibition [2] | inhibition [5] | IC50 [6] | solubility [7] | Drug uptake [8] | inhibition [9] | inhibition [10] | inhibition [11] | Drug uptake [12] | IC50 [13] | Structure (SMILES) | viability at 50 µM [1] | viability at 50 µM [3] | viability at 50 µM [4]
6 | 26% |  |  |  |  |  |  |  |  |  | CCOC(=O)c1ccc2[nH]c(-c3ccc(OC)cc3)nc2c1 | 87.4% | 75.6% | 82.8%
7 | 87.5% |  | 13.6 µM |  |  |  |  |  |  |  | CCOC(=O)c1ccc2[nH]c(-c3ccc(N(C)C)cc3)nc2c1 | 49.5% | 29.7% | 31.1%
8 | 93.2% |  | 9 µM | 59 µM (≈ 20.6 µg/mL) | Active | Active | Active | Active | Active |  | CCOC(=O)c1ccc2[nH]c(-c3ccc(N4CCCCC4)cc3)nc2c1 | 36.3% | 15.9% | 34%
9 | 60.7% | 37.8% | 52.9 µM |  |  |  |  |  |  | 57.5 µM | CCOC(=O)c1ccc2[nH]c(-c3ccc(N4CCOCC4)cc3)nc2c1 | 37.8% | 54.5% | 42.6%
